Source: patent US20210402016A1, “RADIOLABELED BOMBESIN-DERIVED COMPOUNDS FOR IN VIVO IMAGING OF GASTRIN-RELEASING PEPTIDE RECEPTOR (GRPR) AND TREATMENT OF GRPR-RELATED DISORDERS” (Provincial Health Services Authority, priority 2018, published 2021)
Read-outs that look alike come from different tables or passages of the source.

What was measured:
[1] = system: PC-3 xenograft bearing mice; conditions: PET/CT, PC-3 tumor-bearing mice
Method: Animal experiments were approved by the Animal Ethics Committee of the University of British Columbia.
Mice were sedated and scanned (Siemens Inveon microPET/CT) with body temperature maintained by heating pad. […] PET data were acquired in list mode, reconstructed using 3-dimensional ordered-subsets expectation maximization (2 iterations) followed by a fast maximum a priori algorithm (18 iterations) with CT-based attenuation correction. Images were analyzed using the Inveon Research Workplace software (Siemens Healthineers).

[2] = Biodistribution in PC-3 tumor-bearing NSG mice (Example 2); assay type: in vivo; conditions: male, NSG (NOD.Cg-Prkdc^scid Il2rg^tm1Wjl/SzJ), mouse, iv, total radioactivity; for tissue uptake at 2 h / tissue to tissue ratio at 2 h: 120 MIN p.i.
Method: (§1) […]. The mice were sacrificed by CO2 inhalation at 1 h, and 2 h p.i. Blood was collected by cardiac puncture. Organs/tissues were harvested, rinsed with PBS, blotted dry, and weighed. The activity in tissues was assayed by gamma counter and expressed as the percentage injected dose per gram of tissue (% ID/g).

[3] = system: PC-3 xenograft bearing mice; test: as above; assay type: in vivo
Method: as §1

[4] = measured at 5 min and 15 min p.i., mice, radio-HPLC
Text: ^68Ga-ProBOMB2 (5.9±0.3 MBq) was intravenously injected into four male NSG mice. After a 5-min and 15-min uptake period, two mice were sedated/euthanized at each timepoint, and blood was collected. The plasma was extracted from whole blood with acetonitrile, vortexed, and the supernatant separated.

CC(C)C[C@@H](CN1CCC[C@H]1C(N)=O)NC(=O)[C@H](Cc1c[nH]cn1)NC(=O)CNC(=O)[C@@H](NC(=O)[C@H](C)NC(=O)[C@H](Cc1c[nH]c2ccccc12)NC(=O)[C@H](CCC(N)=O)NC(=O)[C@@H](Cc1ccccc1)NC(=O)CN1CCC(NC(=O)CN2CCN(CC(=O)O)CCN(CC(=O)O)CCN(CC(=O)O)CC2)CC1)C(C)C [^68Ga-ProBOMB2, metal not drawn]
Clearance pathway [1]: primarily cleared through the renal pathway | tissue uptake at 1 h ([2]; PC-3 tumor, 60 MIN BLOCKED, co-injection of 100 μg of [D-Phe^6,Leu-NHEt^13,des-Met^14]Bombesin(6-14), read-out: Biodistribution PC3 TUMOR, Mean): 3.77 %ID/g | tissue uptake at 1 h ([2]; PC-3 tumor, 60 MIN p.i., read-out: Biodistribution PC3 TUMOR, Mean): 10.8 %ID/g | tissue uptake at 2 h ([2]; PC-3 tumor, read-out: Biodistribution PC3 TUMOR, Mean): 8.79 %ID/g | tissue uptake at 1 h ([2]; adrenal glands, 60 MIN BLOCKED, co-injection of 100 μg of [D-Phe^6,Leu-NHEt^13,des-Met^14]Bombesin(6-14), read-out: Biodistribution ADRENAL GLANDS, Mean): 0.32 %ID/g | tissue uptake at 1 h ([2]; adrenal glands, 60 MIN p.i., read-out: Biodistribution ADRENAL GLANDS, Mean): 0.76 %ID/g | tissue uptake at 2 h ([2]; adrenal glands, read-out: Biodistribution ADRENAL GLANDS, Mean): 0.47 %ID/g | tissue uptake at 1 h ([2]; bone, 60 MIN BLOCKED, co-injection of 100 μg of [D-Phe^6,Leu-NHEt^13,des-Met^14]Bombesin(6-14), read-out: Biodistribution BONE, Mean): 0.13 %ID/g | tissue uptake at 1 h ([2]; bone, 60 MIN p.i., read-out: Biodistribution BONE, Mean): 0.15 %ID/g | tissue uptake at 2 h ([2]; bone, read-out: Biodistribution BONE, Mean): 0.06 %ID/g | tissue uptake at 1 h ([2]; brain, 60 MIN BLOCKED, co-injection of 100 μg of [D-Phe^6,Leu-NHEt^13,des-Met^14]Bombesin(6-14), read-out: Biodistribution BRAIN, Mean): 0.02 %ID/g | tissue uptake at 1 h ([2]; brain, 60 MIN p.i., read-out: Biodistribution BRAIN, Mean): 0.02 %ID/g | tissue uptake at 2 h ([2]; brain, read-out: Biodistribution BRAIN, Mean): 0.01 %ID/g | tissue uptake at 1 h ([2]; fat, 60 MIN BLOCKED, co-injection of 100 μg of [D-Phe^6,Leu-NHEt^13,des-Met^14]Bombesin(6-14), read-out: Biodistribution FAT, Mean): 0.08 %ID/g | tissue uptake at 1 h ([2]; fat, 60 MIN p.i., read-out: Biodistribution FAT, Mean): 0.06 %ID/g | tissue uptake at 2 h ([2]; fat, read-out: Biodistribution FAT, Mean): 0.02 %ID/g | tissue uptake at 1 h ([2]; heart, 60 MIN BLOCKED, co-injection of 100 μg of [D-Phe^6,Leu-NHEt^13,des-Met^14]Bombesin(6-14), read-out: Biodistribution HEART, Mean): 0.16 %ID/g | tissue uptake at 1 h ([2]; heart, 60 MIN p.i., read-out: Biodistribution HEART, Mean): 0.18 %ID/g | tissue uptake at 2 h ([2]; heart, read-out: Biodistribution HEART, Mean): 0.05 %ID/g | tissue uptake at 1 h ([2]; intestine, 60 MIN BLOCKED, co-injection of 100 μg of [D-Phe^6,Leu-NHEt^13,des-Met^14]Bombesin(6-14), read-out: Biodistribution INTESTINE, Mean): 0.34 %ID/g | tissue uptake at 1 h ([2]; intestine, 60 MIN p.i., read-out: Biodistribution INTESTINE, Mean): 0.46 %ID/g | tissue uptake at 2 h ([2]; intestine, read-out: Biodistribution INTESTINE, Mean): 0.19 %ID/g | tissue uptake at 1 h ([2]; kidney, 60 MIN BLOCKED, co-injection of 100 μg of [D-Phe^6,Leu-NHEt^13,des-Met^14]Bombesin(6-14), read-out: Biodistribution KIDNEY, Mean): 2.22 %ID/g | tissue uptake at 1 h ([2]; kidney, 60 MIN p.i., read-out: Biodistribution KIDNEY, Mean): 1.81 %ID/g | tissue uptake at 2 h ([2]; kidney, read-out: Biodistribution KIDNEY, Mean): 1.27 %ID/g | tissue uptake at 1 h ([2]; liver, 60 MIN BLOCKED, co-injection of 100 μg of [D-Phe^6,Leu-NHEt^13,des-Met^14]Bombesin(6-14), read-out: Biodistribution LIVER, Mean): 0.57 %ID/g | tissue uptake at 1 h ([2]; liver, 60 MIN p.i., read-out: Biodistribution LIVER, Mean): 0.43 %ID/g | tissue uptake at 2 h ([2]; liver, read-out: Biodistribution LIVER, Mean): 0.29 %ID/g | tissue uptake at 1 h ([2]; lungs, 60 MIN BLOCKED, co-injection of 100 μg of [D-Phe^6,Leu-NHEt^13,des-Met^14]Bombesin(6-14), read-out: Biodistribution LUNGS, Mean): 0.41 %ID/g | tissue uptake at 1 h ([2]; lungs, 60 MIN p.i., read-out: Biodistribution LUNGS, Mean): 0.39 %ID/g | tissue uptake at 2 h ([2]; lungs, read-out: Biodistribution LUNGS, Mean): 0.13 %ID/g | tissue uptake at 1 h ([2]; muscle, 60 MIN BLOCKED, co-injection of 100 μg of [D-Phe^6,Leu-NHEt^13,des-Met^14]Bombesin(6-14), read-out: Biodistribution MUSCLE, Mean): 0.09 %ID/g | tissue uptake at 1 h ([2]; muscle, 60 MIN p.i., read-out: Biodistribution MUSCLE, Mean): 0.15 %ID/g | tissue uptake at 2 h ([2]; muscle, read-out: Biodistribution MUSCLE, Mean): 0.03 %ID/g | tissue uptake at 1 h ([2]; pancreas, Biodistribution PANCREAS, Mean, 60 MIN BLOCKED, co-injection of 100 μg of [D-Phe^6,Leu-NHEt^13,des-Met^14]Bombesin(6-14), read-out: Biodistribution […], Mean): 0.62 %ID/g | tissue uptake at 1 h ([2]; pancreas, Biodistribution PANCREAS, Mean, 60 MIN p.i., read-out: Biodistribution […], Mean): 1.2 %ID/g | tissue uptake at 2 h ([2]; pancreas, Biodistribution PANCREAS, Mean, read-out: Biodistribution […], Mean): 0.3 %ID/g | tissue uptake at 1 h ([2]; seminal, 60 MIN BLOCKED, co-injection of 100 μg of [D-Phe^6,Leu-NHEt^13,des-Met^14]Bombesin(6-14), read-out: Biodistribution SEMINAL, Mean): 1.95 %ID/g | tissue uptake at 1 h ([2]; seminal, 60 MIN p.i., read-out: Biodistribution SEMINAL, Mean): 2.44 %ID/g | tissue uptake at 2 h ([2]; seminal, read-out: Biodistribution SEMINAL, Mean): 1.63 %ID/g | tissue uptake at 1 h ([2]; spleen, 60 MIN BLOCKED, co-injection of 100 μg of [D-Phe^6,Leu-NHEt^13,des-Met^14]Bombesin(6-14), read-out: Biodistribution SPLEEN, Mean): 0.33 %ID/g | tissue uptake at 1 h ([2]; spleen, 60 MIN p.i., read-out: Biodistribution SPLEEN, Mean): 0.27 %ID/g | tissue uptake at 2 h ([2]; spleen, read-out: Biodistribution SPLEEN, Mean): 0.11 %ID/g | tissue uptake at 1 h ([2]; stomach, 60 MIN BLOCKED, co-injection of 100 μg of [D-Phe^6,Leu-NHEt^13,des-Met^14]Bombesin(6-14), read-out: Biodistribution STOMACH, Mean): 0.07 %ID/g | tissue uptake at 1 h ([2]; stomach, 60 MIN p.i., read-out: Biodistribution STOMACH, Mean): 0.19 %ID/g | tissue uptake at 2 h ([2]; stomach, read-out: Biodistribution STOMACH, Mean): 0.06 %ID/g | tissue uptake at 1 h ([2]; testes, 60 MIN BLOCKED, co-injection of 100 μg of [D-Phe^6,Leu-NHEt^13,des-Met^14]Bombesin(6-14), read-out: Biodistribution TESTES, Mean): 0.21 %ID/g | tissue uptake at 1 h ([2]; testes, 60 MIN p.i., read-out: Biodistribution TESTES, Mean): 0.16 %ID/g | tissue uptake at 2 h ([2]; testes, read-out: Biodistribution TESTES, Mean): 0.07 %ID/g | tissue to tissue ratio at 1 h ([2]; tumor/blood, 60 MIN p.i., read-out: TUMOR-TO-BLOOD ratio, Mean): 22.2 | tissue to tissue ratio at 2 h ([2]; tumor/blood, read-out: TUMOR-TO-BLOOD ratio, Mean): 75.3 | tissue to tissue ratio at 1 h ([2]; tumor/bone, 60 MIN BLOCKED, co-injection of 100 μg of [D-Phe^6,Leu-NHEt^13,des-Met^14]Bombesin(6-14), read-out: TUMOR-TO-BONE ratio, Mean): 39.8 | tissue to tissue ratio at 1 h ([2]; tumor/bone, 60 MIN p.i., read-out: TUMOR-TO-BONE ratio, Mean): 89.9 | tissue to tissue ratio at 2 h ([2]; tumor/bone, read-out: TUMOR-TO-BONE ratio, Mean): 173 | tissue to tissue ratio at 1 h ([2]; tumor/kidney, 60 MIN BLOCKED, co-injection of 100 μg of [D-Phe^6,Leu-NHEt^13,des-Met^14]Bombesin(6-14), read-out: TUMOR-TO-KIDNEY ratio, Mean): 1.77 | tissue to tissue ratio at 1 h ([2]; tumor/kidney, 60 MIN p.i., read-out: TUMOR-TO-KIDNEY ratio, Mean): 6.03 | tissue to tissue ratio at 2 h ([2]; tumor/kidney, read-out: TUMOR-TO-KIDNEY ratio, Mean): 6.96 | tissue to tissue ratio at 1 h ([2]; tumor/liver, 60 MIN BLOCKED, co-injection of 100 μg of [D-Phe^6,Leu-NHEt^13,des-Met^14]Bombesin(6-14), read-out: TUMOR-TO-LIVER ratio, Mean): 7.33 | tissue to tissue ratio at 1 h ([2]; tumor/liver, 60 MIN p.i., read-out: TUMOR-TO-LIVER ratio, Mean): 26.2 | tissue to tissue ratio at 2 h ([2]; tumor/liver, read-out: TUMOR-TO-LIVER ratio, Mean): 35 | tissue to tissue ratio at 1 h ([2]; tumor/muscle, 60 MIN BLOCKED, co-injection of 100 μg of [D-Phe^6,Leu-NHEt^13,des-Met^14]Bombesin(6-14), read-out: TUMOR-TO-MUSCLE ratio, Mean): 44 | tissue to tissue ratio at 1 h ([2]; tumor/muscle, 60 MIN p.i., read-out: TUMOR-TO-MUSCLE ratio, Mean): 102 | tissue to tissue ratio at 2 h ([2]; tumor/muscle, read-out: TUMOR-TO-MUSCLE ratio, Mean): 411 | tissue to tissue ratio at 1 h ([2]; tumor/pancreas, TUMOR-TO-PANCREAS ratio, Mean, 60 MIN BLOCKED, co-injection of 100 μg of [D-Phe^6,Leu-NHEt^13,des-Met^14]Bombesin(6-14), read-out: TUMOR-TO-[…] ratio, Mean): 6.17 | tissue to tissue ratio at 1 h ([2]; tumor/pancreas, TUMOR-TO-PANCREAS ratio, Mean, 60 MIN p.i., read-out: TUMOR-TO-[…] ratio, Mean): 9.32 | tissue to tissue ratio at 2 h ([2]; tumor/pancreas, TUMOR-TO-PANCREAS ratio, Mean, read-out: TUMOR-TO-[…] ratio, Mean): 31.1 | tissue uptake at 1 h ([2]; whole blood, 60 MIN BLOCKED, co-injection of 100 μg of [D-Phe^6,Leu-NHEt^13,des-Met^14]Bombesin(6-14), read-out: Biodistribution BLOOD, Mean): 0.53 %ID/g | tissue uptake at 1 h ([2]; whole blood, 60 MIN p.i., read-out: Biodistribution BLOOD, Mean): 0.49 %ID/g | tissue uptake at 2 h ([2]; whole blood, read-out: Biodistribution BLOOD, Mean): 0.13 %ID/g | TUMOR-TO-BLOOD ratio, Mean ([3]; 60 MIN BLOCKED, co-injection of 100 μg of [D-Phe^6,Leu-NHEt^13,des-Met^14]Bombesin(6-14)): 7.23 | Decrease of average uptake in tumors by co-injection of [D-Phe^6, Leu-NHEt^13, des-Met^14]Bombesin(6-14) ([3]; PC-3 tumors, 60 min p.i., 100 μg blocker): 65% | Intact in plasma [4]: 89%
